Measurements taken from US9573913B2, “Cathepsin cysteine protease inhibitors” (Merck Sharp & Dohme Corp., priority 2013, dated 2017).

What was measured:
human cathepsin K = human cathepsin K (UniProt P43236); assay: Cathepsin K Assay (hrbCat K); assay type: biochemical; conditions: Z-Leu-Arg-AMC substrate, pH 5.5, 15 min preincubation; read-out: hrbCat K (IP (nM))
How it was run: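 Human cathepsin K (0.4 nM) was preincubated 15 min at room temperature with compound in 50 mM MES pH 5.5, 2.5 mM EDTA, 2.5 mM DTT and 10% DMSO. Inhibition was fitted to a dose-response model.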

human cathepsin F = biological target: T1, human cathepsin F (Homo sapiens, UniProt Q9UBX1); assay: Cathepsin F assay (hCat F); assay type: biochemical; conditions: Z-Phe-Arg-AMC substrate, pH 5.5, 15 min preincubation; read-out: hCat F (IP (nM))
T1 sequence (Q9UBX1 271-484): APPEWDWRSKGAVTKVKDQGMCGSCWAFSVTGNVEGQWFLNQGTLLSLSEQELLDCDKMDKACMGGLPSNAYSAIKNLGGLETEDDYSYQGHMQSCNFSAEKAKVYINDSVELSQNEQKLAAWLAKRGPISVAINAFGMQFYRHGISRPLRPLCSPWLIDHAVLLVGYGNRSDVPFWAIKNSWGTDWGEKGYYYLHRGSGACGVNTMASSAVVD
How it was run: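 Enzyme (10 nM) was preincubated 15 min at room temperature with compounds (1/3 DMSO dilution series, 500–0.025 μM) in 50 mM MES pH 5.5, 2.5 mM EDTA, 2.5 mM DTT, 10% DMSO. Z-Phe-Arg-AMC (8 μM) was added and AMC fluorescence (Ex 360/Em 460 nm) followed for 20 min. % inhibition was fitted to dose-response curves.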

SMILES | IC50 (human cathepsin K) | IC50 (human cathepsin F)
Cc1nc([C@@H]2CC[C@H](F)C[C@H]2C(=O)NC2(C#N)CC2)c(-c2ccc(N3CCC(F)(F)CC3)cc2)s1 [Example 240, (1R,2R,5S)-N-(1-cyanocyclopropyl)-2-(5-(4-(4,4-difluoropiperidin-1-yl)phenyl)-2-methylthiazol-4-yl)-5-fluorocyclohexane-carboxamide] | 8 nM | 7120 nM
Cc1nc([C@@H]2CC[C@H](F)C[C@H]2C(=O)N[C@@H](C)C#N)c(-c2ccc(N3CCC(C)(O)CC3)cc2)s1 [Example 241, (1R,2R,5S)-N-((S)-1-cyanoethyl)-5-fluoro-2-(5-(4-(4-hydroxy-4-methylpiperidin-1-yl)phenyl)-2-methylthiazol-4-yl)cyclohexane-carboxamide] | 34.9 nM | ≥ 10000 nM
Cc1nc([C@@H]2CC[C@H](F)C[C@H]2C(=O)NC2(C#N)CC2)c(-c2ccc(N3CCC(C)(O)CC3)cc2)s1 [Example 242, (1R,2R,5S)-N-(1-cyanocyclopropyl)-5-fluoro-2-(5-(4-(4-hydroxy-4-methylpiperidin-1-yl)phenyl)-2-methylthiazol-4-yl)cyclohexane-carboxamide] | 26.3 nM | ≥ 10000 nM
Cc1nc([C@@H]2CC[C@H](F)C[C@H]2C(=O)NC2(C#N)CC2)c(-c2ccc(N3CCC(S(C)(=O)=O)CC3)cc2)s1 [Example 243, (1R,2R,5S)-N-(1-cyanocyclopropyl)-5-fluoro-2-(2-methyl-5-(4-(4-(methylsulfonyl)piperidin-1-yl)phenyl)thiazol-4-yl)cyclohexane-carboxamide] | 5.3 nM | 8430 nM
Cc1nc([C@@H]2CC[C@H](F)C[C@H]2C(=O)N[C@@H](C)C#N)c(-c2ccc(N3CCC(S(C)(=O)=O)CC3)cc2)s1 [Example 244, (1R,2R,5S)-N-((S)-1-cyanoethyl)-5-fluoro-2-(2-methyl-5-(4-(4-(methylsulfonyl)piperidin-1-yl)phenyl)thiazol-4-yl)cyclohexane-carboxamide] | 4.7 nM | 7740 nM
Cc1nc([C@H]2CCCC[C@@H]2C(=O)NCC#N)c(-c2ccc(C(=O)N3CCOCC3)cc2)s1 [Example 248, (1S,2S)-N-(cyanomethyl)-2-(2-methyl-5-(4-(morpholine-4-carbonyl)phenyl)thiazol-4-yl)cyclohexanecarboxamide] | 6600 nM | ≥ 10000 nM
N#CC1(NC(=O)[C@@H]2C[C@@H](F)CC[C@H]2c2nc(C(F)F)sc2-c2ccc(N3CCS(=O)(=O)CC3)cc2)CC1 [Example 2219, (1R,2R,5S)-N-(1-cyanocyclopropyl)-2-(2-(difluoromethyl)-5-(4-(1,1-dioxidothiomorpho-lino)phenyl)thiazol-4-yl)-5-fluorocyclohexane-carboxamide] | 1.8 nM | 4860 nM
